According to PubChem BioAssay (NCI):
“And” between values parts separate entries of the source, which are not always exact repeats. Equal entries are not always repeated.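 1) Cells in 96-well plates. 2) Compound, 48 h, 5 concentrations. 3) Linear interpolation between surrounding doses. 4) Unreached endpoint = highest concentration. GI50: concentration for 50% inhibition of growth. Definition used: TGI = concentration required for complete inhibition of growth.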

How the values were obtained:
Assay in all cases: NCI anticancer screen, dose series, 48 h
[1] = test system: UACC-257 melanoma
[2] = test system: CCRF-CEM leukemia
[3] = test system: ACHN renal
[4] = test system: COLO 205 colon
[5] = test system: IGROV1 ovarian
[6] = test system: HCT-116 colon
[7] = test system: SK-MEL-28 melanoma
[8] = test system: HT29 colon
[9] = test system: RPMI-8226 leukemia
[10] = test system: NCI-H23 lung
[11] = test system: SW-620 colon

COC(=O)/C=C/COCC1C2CCC(=O)C21 (stereo not given)
TGI [1]: > 100 µM
TGI [2]: > 100 µM
TGI [3]: > 100 µM
TGI [4]: > 100 µM
TGI [5]: > 100 µM
TGI [6]: > 100 µM
TGI [7]: > 100 µM
TGI [8]: > 100 µM
TGI [9]: > 100 µM
TGI [10]: > 100 µM
TGI [11]: > 100 µM

COC(=O)C1=C(C(=O)OC)C2(c3ccccc3)c3ccccc3C(=O)C1N2C1CCCCC1 (stereo not given)
TGI [1]: > 100 µM
TGI [2]: > 100 µM
TGI [3]: > 100 µM
TGI [4]: 32.8 µM
TGI [5]: > 100 µM
TGI [6]: > 100 µM
TGI [7]: > 100 µM
TGI [8]: > 100 µM
TGI [9]: 40.6 µM
TGI [10]: > 100 µM
TGI [11]: > 100 µM

COc1nc(N)nc2c1n(C)c[n+]2C
TGI [1]: > 100 µM
TGI [2]: > 100 µM
TGI [3]: > 100 µM
TGI [4]: > 100 µM
TGI [5]: > 100 µM
TGI [6]: > 100 µM
TGI [7]: > 100 µM
TGI [8]: > 100 µM
TGI [9]: > 100 µM
TGI [10]: > 100 µM
TGI [11]: > 100 µM

N#Cc1c(Cl)cccc1Oc1ccc(S(=O)(=O)/N=C(\NO)Nc2ccc(Cl)cc2)cc1
TGI [1]: 32.1 µM
TGI [2]: 43.9 µM
TGI [3]: 29.1 µM
TGI [4]: 33.6 µM
TGI [5]: 34.4 µM
TGI [6]: 27.2 µM
TGI [7]: 41 µM
TGI [8]: 31.5 µM
TGI [9]: 71.2 µM
TGI [10]: 34.6 µM
TGI [11]: 34.8 µM

[N-]=[N+]=NC1(c2ccccc2)C(=O)c2cccc3c4ccccc4n(c23)C1=O (stereo not given)
TGI [1]: > 100 µM
TGI [2]: > 100 µM
TGI [3]: > 100 µM
TGI [4]: 38.7 µM
TGI [5]: > 100 µM
TGI [6]: > 100 µM
TGI [7]: > 100 µM
TGI [8]: 50.8 µM
TGI [9]: > 100 µM
TGI [10]: > 100 µM
TGI [11]: > 100 µM

CCOC(=O)C(C)c1nc2cc(F)c(N3CCOCC3)cc2[nH]c1=O (stereo not given)
TGI [1]: > 100 µM
TGI [2]: > 100 µM
TGI [3]: > 100 µM
TGI [4]: > 100 µM
TGI [5]: > 100 µM
TGI [6]: > 100 µM
TGI [7]: > 100 µM
TGI [8]: > 100 µM
TGI [9]: > 100 µM
TGI [10]: > 100 µM
TGI [11]: > 100 µM

Nc1nc([O-])c([I+]c2ccccc2)c(=O)[nH]1
TGI [1]: > 100 µM
TGI [2]: > 100 µM
TGI [3]: > 100 µM
TGI [4]: > 100 µM
TGI [5]: > 100 µM
TGI [6]: > 100 µM
TGI [7]: > 100 µM
TGI [8]: > 100 µM
TGI [9]: > 100 µM
TGI [10]: > 100 µM
TGI [11]: > 100 µM

CC1(C)C2CC1C(/C=N\OCC(=O)O)=CC2=O (stereo not given)
TGI [1]: > 100 µM
TGI [2]: > 100 µM
TGI [3]: > 100 µM
TGI [4]: > 100 µM
TGI [5]: > 100 µM
TGI [6]: > 100 µM
TGI [7]: > 100 µM
TGI [8]: > 100 µM
TGI [9]: > 100 µM
TGI [10]: > 100 µM
TGI [11]: > 100 µM

Nc1c(O)c2c(c(O)c1Cl)C(=O)C=CC2=O
TGI [1]: 3.3 µM
TGI [2]: > 100 µM
TGI [3]: 18.8 µM
TGI [4]: 3.32 µM
TGI [5]: 14 µM
TGI [6]: 7.09 µM
TGI [7]: 8.68 µM
TGI [8]: 8.21 µM
TGI [9]: 44.8 µM
TGI [10]: 4.89 µM
TGI [11]: 9.93 µM

NS(=O)(=O)c1ccc(NC(=S)/N=C/c2c(O)c3ccccc3[nH]c2=O)cc1
TGI [1]: > 100 µM
TGI [2]: > 100 µM
TGI [3]: > 100 µM
TGI [4]: > 100 µM
TGI [5]: > 100 µM
TGI [6]: > 100 µM
TGI [7]: > 100 µM
TGI [8]: > 100 µM
TGI [9]: > 100 µM
TGI [10]: > 100 µM
TGI [11]: > 100 µM

COC(=O)CC(SCCO)SCCO
TGI [1]: > 100 µM
TGI [2]: > 100 µM
TGI [3]: > 100 µM
TGI [4]: > 100 µM
TGI [5]: > 100 µM
TGI [6]: > 100 µM
TGI [7]: > 100 µM
TGI [8]: > 100 µM
TGI [9]: > 100 µM
TGI [10]: > 100 µM
TGI [11]: > 100 µM

CCOC(=O)CCN1C(=O)c2ccc(NC(=O)C(=O)O)cc2S1(=O)=O
TGI [1]: > 100 µM
TGI [2]: > 100 µM
TGI [3]: > 100 µM
TGI [4]: > 100 µM
TGI [5]: > 100 µM
TGI [6]: > 100 µM
TGI [7]: > 100 µM
TGI [8]: > 100 µM
TGI [9]: > 100 µM
TGI [10]: > 100 µM
TGI [11]: > 100 µM

Cc1cccc(/C=N/NC(=S)NC2CCCCC2)n1
TGI [1]: > 84.5 µM
TGI [2]: > 21.5 µM
TGI [3]: > 85.2 µM
TGI [4]: > 100 µM
TGI [5]: > 100 µM
TGI [6]: 19.4 µM
TGI [7]: > 100 µM
TGI [8]: 42.1 µM
TGI [9]: 45.4 µM
TGI [10]: > 100 µM
TGI [11]: > 100 µM

COC(=O)C1C(O)C(C)C(O)C(C)/C=C\C=C(C)C(=O)Nc2c(C)c(OC(C)=O)c3c(c2O)C(=O)C(C)=C2OCOC(=C23)C(C)=CC(C)(O)C(O)C(C)C1O (stereo not given)
TGI [1]: 55.7 µM and 62.5 µM
GI50 [2]: 18.9 µM and 54.7 µM
TGI [2]: 50.9 µM and > 100 µM
TGI [3]: > 100 µM
TGI [4]: 36.3 µM and 58.6 µM
TGI [5]: > 100 µM
GI50 [6]: 20.3 µM
TGI [6]: 49.6 µM and > 100 µM
GI50 [7]: 21.7 µM
TGI [7]: 44.7 µM and > 100 µM
TGI [8]: 40.2 µM and > 100 µM
GI50 [9]: 15.9 µM and 64.3 µM
TGI [9]: 41.3 µM and > 100 µM
GI50 [10]: 32.6 µM and > 100 µM
TGI [10]: 58.9 µM and > 100 µM
GI50 [11]: 20.1 µM
TGI [11]: 39.6 µM and > 100 µM
